US20190038587A1, “DNA Methylation Landscapes of Post-Traumatic Stress Disorder (PTSD) Susceptibility and Resilience and Novel Therapeutics of PTSD Derived Thereof” (priority 2016, published 2019)

How the values were obtained:
long term potentiation = conditions: literature; cited from earlier work
[1] = tested on: Beta estradiol downstream pathway; experiment: Pathway analysis of upstream regulators of differentially methylated genes; parameters: species or system Sprague-Dawley rats; conditions: susceptible animals treated with SAM relative to susceptible treated with saline; FIG. 6B
Source text: If DNA methylation plays a causal role in PTSD, comparative analysis of upstream regulators of genes whose DNA methylation is different in control, susceptible, resilient and SAM treated animals could reveal important putative new pathways and networks involved in PTSD molecular pathology that are candidates for therapeutic intervention (FIG. 6A). […] Other up-regulators of differentially methylated genes are presented in the Heatmap. These pathways are relevant to anxiety and memory pathways such as: sex hormones, glucocorticoid and different cytokines.
In reference to FIG. 6, “A” is coloring representing the p value of each group for the different “upstream-regulator” regulated pathways. Light blue represents low activation and dark blue represents high activation of the pathway. Grey represents pathways that didn't change. Yellow lines and boxes represent sex hormone dependent pathways, blue lines and boxes represent cytokine regulated pathways, pink lines and boxes represent glucocorticoids regulated pathways and green lines and boxes represent retinoic acid (vitamin A) regulated pathways. “B” is circular heat maps representing the different pathways that are influenced by a specific “upstream-upregulator” and are altered in PTSD susceptible and resistant animals. […]

[2] = tested on: DNA methylation profile in the NAc; experiment: Capture bisulfite sequencing and DNA methylation mapping of nucleus accumbens after SAM treatment; format: in vivo, Sprague-Dawley rats
Protocol: (§1) Brains were removed immediately after exposure to litter with cat scent immediately after Re3. Each brain was placed in a Perspex brain matrix and sliced into 1.0 mm segments. The NAc was punched out using a micro dissecting needle of 13-14 G. Brain tissue was frozen at −70° C. until DNA and RNA extraction.
Genomic DNA was extracted using All Prep DNA/RNA Micro Kit, Qiagen (Hilden, Germany)
The SeqCap Epi Enrichment System was used for target bisulfite sequencing of promoters and enhancers in the rat genome. The rat (rn4) target probes were custom designed by utilizing H3K4me1 and H3K4me3 (indicating enhancers and promoters respectively) signals from mouse samples as there is no currently available ChIP data of H3K4me1 and H3K4me3 with respect to the rat species. PuttivH3K4me1 and me3 were selected by mapping and aligning genomic fragments from mouse to the rat and retaining any fragments that share a high similarity and the subsequent associated signals. A total of 53374 target probes have been designed spanning 48072248 base pairs of sequence with a mean probe size of 900 bp. Biotinylated target probes were designed for both strands of bisulfite converted genomic DNA. Bisulfite treated genomic DNA is ligated to methylated NGS adaptors, hybridized to the biotinylated oligonucleotide probes which is followed by a series of washes of off-target DNA sequences and unbound DNA. The resulting isolated specific DNA then undergoes PCR amplification for downstream sequencing on Illumina Hiseq 2000 sequencer. Capture and hybridization is performed as a service for fee by ICRM in Montreal licensed by Roche/Nimblegen. The following bioinformatics workflow is used in the lab. Quality control is done using FastQC to assess sequencing scores and other quality metrics. If necessary, trimming of raw file is performed using Trimmomatic to remove low scoring sequencing results and/or adapter contents. Sequences are aligned to rn4 rat reference genome using Bsmap v2.89. A typical alignment rate of 90%-95% is achieved (30× coverage). The resulting sequencing alignment file (SAM) is converted to binary alignment format (BAM) for downstream analysis and filtering. BAM files are split, merged, and sorted by strand for additional downstream filtering and analysis. Duplicate reads within the BAM files are removed via Picard Tools (v1.93, BROAD institute) strand-specifically and the separate BAM files are merged back together and examined by Bamtools to assess whether the sequences are properly mapped to genome, whether both paired end reads exist (for paired end sequencing), and whether paired end reads are properly paired to each other (for paired end sequencing). Using the final BAM file, methylation ratios and coverage is recovered by provided scripts within Bsmap as well as methylation context. Annotation of genomic locations is performed by HOMER. Computation of differential methylation sites and tiled windows of differentially methylated regions was performed using a logistic regression method with the Methylkit R package in Bioconductor1. FDR adjusted P value significance threshold is held at <0.2.
NAcs were isolated from the animals (n=4-7 per group) following the third reminder and DNA and RNA were extracted as described in the methods. DNA was bisulfite converted, enriched using capture arrays for all predicted promoters and enhancers in the rat genome and was then subjected to next generation sequencing. […]

[3] = tested on: susceptible rats (PTSD-like); experiment: Rat PTSD model (predator scent, incubation of fear): freezing behavior in open field after third reminder; format: in vivo, Sprague-Dawley rats
Protocol: Adult male Sprague-Dawley rats (250-270 gr; Harlan, Rehovot, Israel) were used and housed under conditions of constant temperature (22° C.) and 50% humidity, with a 12-h light-12-h dark cycle. The rats were allowed to habituate to the animal house for 7 days (acclimation). They were housed three per cage, two experimental rats together with a third companion rat. The same three rats remained together until the end of the study. Food and water were provided ad libitum. All experiments were performed between 08:00 and 14:00 in daylight. All animal procedures were approved by the Bar-Ilan University Animal Care Committee and were carried out in accordance with the NIH Guide for the Care and Use of Laboratory Animals.
The model used in this research is based on Kesner et al., 2009^32. This model consists of several stages encompassing […], detailed below and depicted in FIG. 1. The animals are analyzed according to three clinically-relevant clusters of symptoms: manifestation of freezing behavior when (a) situated alone in an open field paradigm (re-experiencing), (b) situated with a habituated companion (social interaction) and (c) after exposure to a hyperarousal event^33. The range of each measured behavioral procedure was determined for all animals after the base-line (week 3). The data collected at baseline was analyzed and the explore procedure was applied using SPSS 11 to define the range of the population. The upper and lower levels of this range were treated as ‘normal baseline’ and alterations from this range were used to define PTSD-like behavior (susceptible).
Each experimental or naive rat was habituated for 7 days to their home cage (the first week of the habituation). For the first stage of the experiment each experimental or naive rat was habituated for 7 days to an open field apparatus together with a companion rat from their home cage, 5 min per day for 7 days (the second week of the experiment). The open field apparatus was a 90×90×30 cm Plexiglas box, which was placed under a camera. The video and computer equipment were situated in a separate room where all video and observation analyses were performed.
After 14 days (Day 1) of habituation, baseline freezing levels of experimental and naive rats were measured prior to stress exposure. Behavioral parameters and measurements are described below (Behavioral Measurements section).
One week later (Day 7), experimental rats were exposed to stress, i.e. predator scent. Individual rats were placed for 30 min in a clean plastic cylinder (diameter: 30 cm, height: 33 cm) containing 125 ml of well-soiled cat litter, used by a cat during the 24 h prior to the experiment. After exposure to stress, each rat was transferred to the open field, and three behavioral parameters were measured (as described in the Behavioral Measurements section below). The cylinder was cleaned between testing of each rat. Temperature and humidity conditions in the stress exposure area were identical to those in the housing cages and open field. The companion rats were not exposed to stress, and were housed in separate cages in a separate housing area during all experiments. The same cat was used for the litter introduced during initial exposure.
One week later (Day 14), rats were re-exposed for 30 minutes to litter with the same texture, but without the cat scent. Behavioral parameters were subsequently tested (as described below).
Three weeks later (Day 35), rats were again exposed for 30 min to litter with the same texture and without cat scent. Behavioral parameters were subsequently tested (as described below). Behavioral data for this testing stage were analyzed according to the division criteria detailed below. Based on the obtained results, experimental rats were defined as either susceptible or resilient.
After exposure to cat litter, each rat was placed in the open field for measurement of PTSD-like behavior. […]

RORA mRNA = RORA mRNA expression in nucleus accumbens following the third reminder; format: in vivo, Sprague-Dawley rats; conditions: NAc following Re3; SAM vs saline; FIG. 6C
Protocol: as §1
The retinoic biosynthesis and degradation pathway was also enriched with differentially methylated genes. In the susceptible group there was an enrichment in downstream targets of the RAR-Related Orphan Receptor A (RORA), however the impact on level of activity of this pathway could not be derived from this analysis (FIG. 6B). Therefore, the levels of RORA mRNA expression in the different groups was first determined. RORA mRNA expression levels were higher in either control or resilient animals treated with either saline or SAM than in susceptible animals (*p<0.05, *p<0.05 and **p<0.01 respectively) (FIG. 6C), consistent with the possibility that this gene is involved in the pathology of PTSD. […] Therefore, it was hypothesized that the RORA pathway is involved in the hyperarousal behavior which is resistant to SAM's treatment and characteristic of the susceptible PTSD group. The correlation between the mRNA expression of RORA and the three behavioral tests was first measured; as hypothesized, only the hyperarousal behavior was correlated with the mRNA expression of RORA (FIG. 6D). […]

[4] = susceptible-SAM vs susceptible-saline rats, threshold >10, Q value 0.2, FIG. 4A

| Structure (SMILES) | effect on long term potentiation (long term potentiation) | state of activity of Beta estradiol downstream pathway [1] | CGs sites differentially methylated in the susceptible animals and reversed by the SAM treatment ([2]; FIG. 4A-B) [CGs sites] | CG sites differentially methylated in both the susceptible and the resilient rats affected by SAM ([2]; FIG. 4C-D) [CG sites] | fraction of total susceptible sites reversed by SAM treatment ([2]; sites altered in susceptible rats relative to controls) [%] | CGs sites that were de-methylated [2, 4] [CGs sites] | CGs sites that were hyper-methylated [2, 4] [CGs sites] | freezing behavior during the 'exploration' test ([3]; Embodiment 2, susceptible rats, SAM 25 mg/kg i.p. 24 h and 1 h before Re-3, vs susceptible-saline, FIG. 3A) | freezing behavior during the 'social interaction' test ([3]; Embodiment 2, susceptible rats, SAM 25 mg/kg i.p. 24 h and 1 h before Re-3, vs susceptible-saline, FIG. 3B) | freezing behavior during the 'hyperarousal' test ([3]; Embodiment 2, susceptible rats, SAM 25 mg/kg i.p. 24 h and 1 h before Re-3, vs susceptible-saline, FIG. 3C) | freezing behavior during the 'exploration' test ([3]; Embodiment 4, susceptible rats, SAM 25 mg/kg and/or retinoic acid 2 mg/kg i.p. 24 h and 1 h before Re-3, vs susceptible-RA and susceptible-saline, FIG. 7A) | freezing behavior during the 'social interaction' test ([3]; Embodiment 4, susceptible rats, SAM 25 mg/kg and/or retinoic acid 2 mg/kg i.p. 24 h and 1 h before Re-3, vs susceptible-RA and susceptible-saline, FIG. 7B) | fold change in freezing behavior in 'exploration' and 'social interaction' tests (from Re-2 to Re-3) ([3]; susceptible-treated rats, FIG. 3D-G) | fold change in freezing behavior in the 'hyperarousal' test (from Re-2 to Re-3) ([3]; susceptible-treated rats, FIG. 3H-I) | level of expression of RORA (mRNA) (RORA mRNA) |
| --- | --- | --- | --- | --- | --- | --- | --- | --- | --- | --- | --- | --- | --- | --- | --- |
| Nc1ncn([C@H]2C[C@H](O)[C@@H](CO)O2)c(=O)n1 [5-aza-2-deoxycytidine] | inhibited long term potentiation |  |  |  |  |  |  |  |  |  |  |  |  |  |  |
| C[S+](CC[C@H](N)C(=O)O)C[C@H]1O[C@@H](n2cnc3c(N)ncnc32)[C@H](O)[C@@H]1O (stereo partly drawn) [SAM, S-adenosylmethionine] |  | inhibited | 140 | 38 | 30 | 599 | 363 | significantly decreased | significantly decreased | no difference in freezing behavior | significantly decreased | significantly decreased | effective in reducing these behaviors | ineffective in changing freezing behavior | no effect |
